Like-named read-outs stand apart in the source and are kept apart here.
Experiments:
[1] = Plasma protein binding (rapid equilibrium dialysis); format: in vitro ADME; settings: diluted to 10% in PBS, pH 7.4
Description: Human plasma was purchased from Innovative Research, Inc (Novi, MI, USA). Dog (beagle), rat (Sprague Dawley) and hamster (golden Syrian) plasma were procured from Valley Biomedical Products and Services, Inc. (Winchester, VA, USA). Mouse (BALB/c) plasma was collected in-house (animals sourced from Monash Animal Services, Monash University). All plasma was stored frozen at -20°C until use.
Plasma protein binding was assessed using rapid equilibrium dialysis (RED) according to methods published previously ([10]). […] Parallel spiked aliquots of 10% plasma were used to assess compound stability under the same incubation conditions. At the completion of the dialysis period, aliquots were taken from the donor and dialysate chambers to obtain measurements of the total and free concentration, respectively. The pH of the matrix and dialysate were confirmed to be within pH 7.4 ± 0.1 for the duration of the experiment.
(§1) Dialysis was conducted for 6 h and parallel non-dialyzed samples were included to confirm the absence of compound degradation. Binding to hepatocytes (at a cell density of 1 x 10^6 cells/mL) was calculated from the measured microsomal binding (at 1 mg/mL) as described previously ([26]). The fraction unbound (fu) was determined from the ratio of the dialysate to the donor concentration, assuming that the system was at steady state at the end of the dialysis period. For plasma, the data were corrected for the dilution factor to give a binding value for neat plasma according to previously published methods ([27]).

[2] = Binding to hepatocytes, calculated from microsomal binding; format: in vitro ADME; settings: human, 1 x 10^6 cells/mL, read-out: hepatocyte fraction unbound
Description: as §1

In vivo pharmacokinetics [3] = experiment: In vivo pharmacokinetics; parameters: species or system female BALB/c mice; settings: female, BALB/c, plasma
Description: (§2) Single dose intravenous (IV) pharmacokinetic (PK) studies in male Sprague Dawley rats and IV and oral PK studies in female BALB/c mice were conducted at Monash University. […] Blood was sampled via a cannula implanted in the carotid artery (also on the day prior to dosing) at pre-determined time points up to 24 h post-dose. Samples were transferred to vials containing heparin as an anticoagulant, gently mixed and centrifuged, and plasma separated for subsequent quantitative analysis using LC-MS. […] A dose of 25 mg/kg prepared in an aqueous suspension vehicle containing 0.5% hydroxypropyl methylcellulose, 0.5% benzyl alcohol and 0.4% polysorbate 80 (0.2 mL per mouse) was also dosed via oral gavage. Mouse blood was sampled via submandibular bleed up to 24 h post-dose (n=2 mice per time point, n=3 samples per mouse) into vials containing heparin and plasma was separated for quantitative analysis as described above.
(§3) Additional PK studies were also conducted by WuXi AppTec Co, Ltd (Shanghai, China) according to protocols reviewed and approved by DNDi. […] IV and oral formulations for rats, mice and hamsters were the same as described above. For dogs, the IV dose was administered in saline containing 2% DMSO and 3% Solutol HS-15 and the oral formulation was as described above. Blood was sampled up to 48 h post-dose into vials containing potassium EDTA as an anticoagulant, proteins were precipitated with acetonitrile and plasma was separated and assayed by LC-MS.
Single dose pharmacokinetic parameters (clearance, volume of distribution and half-life) were initially estimated using non-compartmental methods and oral bioavailability was calculated using the ratio of the dose corrected AUC after oral dosing relative to that after IV administration. […] Where a full concentration versus time profile was obtained from a single animal, parameters were estimated for each animal and mean and standard deviations calculated. In the case of mice where sparse sampling was used with multiple animals per time point, the data analysis was conducted using the mean profile.

In vivo pharmacokinetics [4] = experiment: In vivo pharmacokinetics; parameters: species or system male Sprague Dawley rats; settings: for Vd: read-out: Plasma Vss
Description: as §2, §3
Single dose pharmacokinetic parameters (clearance, volume of distribution and half-life) were initially estimated using non-compartmental methods and oral bioavailability was calculated using the ratio of the dose corrected AUC after oral dosing relative to that after IV administration. Nominal doses were used in the calculations unless the measured dose differed by more than 15% from the nominal dose, in which case the measured dose was used. Where a full concentration versus time profile was obtained from a single animal, parameters were estimated for each animal and mean and standard deviations calculated. In the case of mice where sparse sampling was used with multiple animals per time point, the data analysis was conducted using the mean profile.

[5] = In vitro cytotoxicity assay; format: cell-based; settings: human, HepG2 human hepatocellular carcinoma cells
[6] = In vitro cytotoxicity assay; format: cell-based; settings: monkey, Vero monkey kidney epithelial cells
hERG = hERG (Homo sapiens, UniProt Q12809); experiment: hERG channel test (Qpatch / Qube); format: cell-based; parameters: host or cells: Chinese hamster ovary cells; settings: Qpatch hERG
Chain of hERG (Q12809 whole entry): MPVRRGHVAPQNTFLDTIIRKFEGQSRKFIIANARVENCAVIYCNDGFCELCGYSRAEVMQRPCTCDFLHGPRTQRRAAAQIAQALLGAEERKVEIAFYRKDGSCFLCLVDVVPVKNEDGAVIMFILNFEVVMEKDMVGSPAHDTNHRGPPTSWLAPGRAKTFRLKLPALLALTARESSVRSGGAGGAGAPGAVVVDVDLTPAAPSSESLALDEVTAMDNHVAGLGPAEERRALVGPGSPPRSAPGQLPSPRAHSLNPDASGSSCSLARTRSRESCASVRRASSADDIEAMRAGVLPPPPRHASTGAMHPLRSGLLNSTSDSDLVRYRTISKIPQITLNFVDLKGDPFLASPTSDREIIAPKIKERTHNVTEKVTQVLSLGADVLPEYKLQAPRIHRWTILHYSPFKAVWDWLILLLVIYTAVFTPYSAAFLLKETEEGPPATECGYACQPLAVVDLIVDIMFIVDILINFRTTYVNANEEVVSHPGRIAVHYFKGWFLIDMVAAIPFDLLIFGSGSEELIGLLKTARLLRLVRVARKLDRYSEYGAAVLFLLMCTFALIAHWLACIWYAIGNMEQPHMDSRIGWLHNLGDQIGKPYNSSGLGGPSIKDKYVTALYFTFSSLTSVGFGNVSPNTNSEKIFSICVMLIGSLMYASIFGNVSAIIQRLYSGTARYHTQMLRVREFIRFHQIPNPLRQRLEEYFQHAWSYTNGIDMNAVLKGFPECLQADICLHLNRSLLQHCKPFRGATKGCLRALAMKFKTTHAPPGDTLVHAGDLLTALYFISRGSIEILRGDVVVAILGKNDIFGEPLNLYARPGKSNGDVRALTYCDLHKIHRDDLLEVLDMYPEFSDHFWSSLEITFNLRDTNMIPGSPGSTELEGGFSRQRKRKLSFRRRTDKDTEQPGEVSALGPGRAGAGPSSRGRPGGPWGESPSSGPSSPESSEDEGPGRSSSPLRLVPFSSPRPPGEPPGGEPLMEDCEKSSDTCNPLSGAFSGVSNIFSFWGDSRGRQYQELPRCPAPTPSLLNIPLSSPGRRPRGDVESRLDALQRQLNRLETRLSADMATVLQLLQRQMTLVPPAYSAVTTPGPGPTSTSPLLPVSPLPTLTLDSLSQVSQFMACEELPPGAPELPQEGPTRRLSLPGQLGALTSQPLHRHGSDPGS
Description: Two concentrations (1 and 30 μM, two replicates each) were tested at room temperature.

[7] = male, Sprague Dawley, plasma, Rat, oral 10 mg/kg
[8] = male, Sprague Dawley, rat, plasma, rats, single oral 50 mg/kg
[9] = male, Sprague Dawley, rat, plasma, rats, single oral 100 mg/kg
[10] = male, Sprague Dawley, rat, plasma, rats, single oral 300 mg/kg

Compound: Cc1[nH]c2nc(N)nc(C)c2c1-c1ccc(C#N)c2c1OCO2 [DNDI-6174]
- fraction unbound at 24 h ([1]; BALB/c, mouse): 0.12
- fraction unbound at 24 h ([1]; Sprague Dawley, rat): 0.069
- fraction unbound at 24 h ([1]; beagle, dog): 0.05
- fraction unbound at 24 h ([1]; golden Syrian, hamster): 0.09
- fraction unbound at 24 h ([1]; human): 0.059
- fraction unbound [2]: 0.63
- clearance (In vivo pharmacokinetics [3]; mouse, iv, 2 mg/kg, intravenous 2.0 mg/kg, read-out: Plasma CL): 7.46 mL/min/kg
- half-life (In vivo pharmacokinetics [3]; Mouse, intravenous 2.0 mg/kg, read-out: Apparent t1/2 (converted)): 2 h
- Cmax (In vivo pharmacokinetics [3]; Mouse, oral 25 mg/kg): 10400 ng/mL
- Tmax (In vivo pharmacokinetics [3]; Mouse, oral 25 mg/kg): 1 h
- bioavailability (In vivo pharmacokinetics [3]; Mouse, oral 25 mg/kg): > 100%
- Cmax (In vivo pharmacokinetics [4]; [7]): 4210 ng/mL
- Tmax (In vivo pharmacokinetics [4]; [7]): 4 h
- bioavailability (In vivo pharmacokinetics [4]; [7]): 93%
- half-life (In vivo pharmacokinetics [4]; male, Sprague Dawley, rat, plasma, iv, 3 mg/kg, Rat, intravenous 3.0 mg/kg, Monash University, read-out: Apparent t1/2 (converted)): 7.9 h
- AUC(0-inf) (In vivo pharmacokinetics [4]; male, Sprague Dawley, rat, plasma, iv, 3 mg/kg, Rat, intravenous 3.0 mg/kg, Monash University, read-out: Plasma AUC0-inf): 23600 ng·h/mL
- clearance (In vivo pharmacokinetics [4]; male, Sprague Dawley, rat, plasma, iv, 3 mg/kg, Rat, intravenous 3.0 mg/kg, Monash University, read-out: Plasma CL): 2.12 mL/min/kg
- Vd (In vivo pharmacokinetics [4]; male, Sprague Dawley, rat, plasma, iv, 3 mg/kg, Rat, intravenous 3.0 mg/kg, Monash University): 1.4 L/kg
- half-life (In vivo pharmacokinetics [4]; male, Sprague Dawley, rat, plasma, iv, 3 mg/kg, Rat, intravenous 3.0 mg/kg, WuXi AppTec, read-out: Apparent t1/2 (converted)): 5.3 h
- AUC(0-inf) (In vivo pharmacokinetics [4]; male, Sprague Dawley, rat, plasma, iv, 3 mg/kg, Rat, intravenous 3.0 mg/kg, WuXi AppTec, read-out: Plasma AUC0-inf): 18500 ng·h/mL
- clearance (In vivo pharmacokinetics [4]; male, Sprague Dawley, rat, plasma, iv, 3 mg/kg, Rat, intravenous 3.0 mg/kg, WuXi AppTec, read-out: Plasma CL): 2.95 mL/min/kg
- Vd (In vivo pharmacokinetics [4]; male, Sprague Dawley, rat, plasma, iv, 3 mg/kg, Rat, intravenous 3.0 mg/kg, WuXi AppTec): 1.3 L/kg
- clearance (In vivo pharmacokinetics [4]; male, Sprague Dawley, rat, plasma, iv, 3 mg/kg, Rat, read-out: Measured in vivo CLplasma): 2.5 mL/min/kg
- half-life (In vivo pharmacokinetics [4]; male, Sprague Dawley, rat, plasma, po, 10 mg/kg, Rat, oral 10 mg/kg, read-out: Apparent t1/2 (converted)): 7 h
- AUC(0-inf) (In vivo pharmacokinetics [4]; male, Sprague Dawley, rat, plasma, po, 10 mg/kg, Rat, oral 10 mg/kg, read-out: Plasma AUC0-∞): 57700 ng·h/mL
- AUC(0-inf) (In vivo pharmacokinetics [4]; male, Sprague Dawley, rat, plasma, po, 50 mg/kg, rats, single oral 50 mg/kg, read-out: AUC0-∞): 292000 ng·h/mL
- half-life (In vivo pharmacokinetics [4]; male, Sprague Dawley, rat, plasma, po, 50 mg/kg, rats, single oral 50 mg/kg, read-out: T1/2 (converted)): 9.05 h
- Cmax (In vivo pharmacokinetics [4]; [8]): 14200 ng/mL
- Tmax (In vivo pharmacokinetics [4]; [8]): 5.7 h
- Cmax (In vivo pharmacokinetics [4]; [9]): 20900 ng/mL
- Tmax (In vivo pharmacokinetics [4]; [9]): 17 h
- Cmax (In vivo pharmacokinetics [4]; [10]): 30900 ng/mL
- Tmax (In vivo pharmacokinetics [4]; [10]): 27 h
- parent compound excreted unchanged in urine (In vivo pharmacokinetics [4]; rats, intravenous): < 1%
- AUC0-24 (reported in AUC0-∞ line) (In vivo pharmacokinetics [4]; rats, single oral 100 mg/kg): 430000 ng·h/mL
- AUC0-24 (reported in AUC0-∞ line) (In vivo pharmacokinetics [4]; rats, single oral 300 mg/kg): 562000 ng·h/mL
- CC50 [5]: > 64 µM
- CC50 [6]: > 50 µM
- inhibition at 1 µM (hERG; 1 μM): 3.81%
- inhibition at 10 µM (hERG; 10 μM): 48%

— PMC7615677 (Science translational medicine, 2023)
